The values below come from the supplement of paper PMC10307832.

What all share (test): relative viability (nuclei count vs DMSO), 5 days (fraction); higher = more cells survive
Compound in the assay “KIN001-266 + Trametinib”: CCN1CCC(CC1)N2C=C(N=N2)CNC3=CC4=C(C(=CN=C4C(=C3)Cl)C#N)NC5=CC(=C(C=C5)F)Cl [KIN001-266] + CC(=O)Nc1cccc(-n2c(=O)n(C3CC3)c(=O)c3c(Nc4ccc(I)cc4F)n(C)c(=O)c(C)c32)c1 [Trametinib] (partner 0.02 µM)
A digest of the protocol:
(§1)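 Cells from lung cancer lines were seeded into 1536-well plates and, one day later, dosed by pin tool. Treatments were either a single drug or a fixed dose of an anchor drug with five library-drug doses (not always all listed) in √10 steps. After 5 days, nuclei were stained in a one-step fixation (final 0.05% Triton X-100, 1% formaldehyde, 1 ug/ml Hoechst) and counted on 4× images, and relative viability is the treated-to-vehicle nuclei ratio, as the median of duplicate plates.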

Compound in the assay “KIN001-266 + Navitoclax”: CCN1CCC(CC1)N2C=C(N=N2)CNC3=CC4=C(C(=CN=C4C(=C3)Cl)C#N)NC5=CC(=C(C=C5)F)Cl [KIN001-266] + CC1(C)CCC(c2ccc(Cl)cc2)=C(CN2CCN(c3ccc(C(=O)NS(=O)(=O)c4ccc(N[C@H](CCN5CCOCC5)CSc5ccccc5)c(S(=O)(=O)C(F)(F)F)c4)cc3)CC2)C1 [Navitoclax] (partner 0.5 µM)
In a few lines:
as §1

Compound in the assay “KIN001-266 + Pemetrexed”: CCN1CCC(CC1)N2C=C(N=N2)CNC3=CC4=C(C(=CN=C4C(=C3)Cl)C#N)NC5=CC(=C(C=C5)F)Cl [KIN001-266] + Nc1nc2[nH]cc(CCc3ccc(C(=O)N[C@@H](CCC(=O)O)C(=O)O)cc3)c2c(=O)[nH]1 [Pemetrexed] (partner 0.2 µM)
A digest of the protocol:
as §1

Compound in the assay “KIN001-266 + Phenformin”: CCN1CCC(CC1)N2C=C(N=N2)CNC3=CC4=C(C(=CN=C4C(=C3)Cl)C#N)NC5=CC(=C(C=C5)F)Cl [KIN001-266] + N=C(N)NC(=N)NCCc1ccccc1 [Phenformin] (partner 250 µM)
In a few lines:
as §1

On to HCC-366, for which the relative viability with KIN001-266 + Trametinib (first compound 0.08 µM) was determined as 0.446; in the assay with KIN001-266 + Trametinib (first compound 0.253 µM), 0.468; in the assay with KIN001-266 + Trametinib (first compound 0.8 µM) it was 0.32; in the assay with KIN001-266 + Trametinib (first compound 2.53 µM), 0.334; in the assay with KIN001-266 + Trametinib (first compound 8 µM) it was 0.277; with KIN001-266 + Navitoclax (first compound 0.08 µM), 0.923. In addition, the relative viability in the assay with KIN001-266 + Navitoclax (first compound 0.253 µM) stood at 1.05; with KIN001-266 + Navitoclax (first compound 0.8 µM), 1.07; with KIN001-266 + Navitoclax (first compound 2.53 µM), 1.11; with KIN001-266 + Navitoclax (first compound 8 µM), 1.12; with KIN001-266 + Pemetrexed (first compound 0.08 µM) it was 0.207; with KIN001-266 + Pemetrexed (first compound 0.253 µM), 0.157. For the same cell line, the relative viability in the assay with KIN001-266 + Pemetrexed (first compound 0.8 µM) is 0.144; with KIN001-266 + Pemetrexed (first compound 2.53 µM), 0.184; with KIN001-266 + Pemetrexed (first compound 8 µM) it was 0.24; with KIN001-266 + Phenformin (first compound 0.08 µM), 0.657; with KIN001-266 + Phenformin (first compound 0.253 µM), 0.644; with KIN001-266 + Phenformin (first compound 0.8 µM) it was 0.596. Also, the relative viability with KIN001-266 + Phenformin (first compound 2.53 µM) was 0.567; with KIN001-266 + Phenformin (first compound 8 µM), 0.509.
In the case of NCI-H1975, the relative viability with KIN001-266 + Trametinib (first compound 0.08 µM) came out at 0.435; in the assay with KIN001-266 + Trametinib (first compound 0.253 µM), 0.343; with KIN001-266 + Trametinib (first compound 0.8 µM), 0.346; with KIN001-266 + Trametinib (first compound 2.53 µM) it was 0.461; in the assay with KIN001-266 + Trametinib (first compound 8 µM), 0.325; with KIN001-266 + Navitoclax (first compound 0.08 µM), 1.16. The relative viability in the assay with KIN001-266 + Navitoclax (first compound 0.253 µM) was determined as 1.04; with KIN001-266 + Navitoclax (first compound 0.8 µM), 1.13; in the assay with KIN001-266 + Navitoclax (first compound 2.53 µM), 1.11; with KIN001-266 + Navitoclax (first compound 8 µM), 1.09; in the assay with KIN001-266 + Pemetrexed (first compound 0.08 µM) it was 0.314; in the assay with KIN001-266 + Pemetrexed (first compound 0.253 µM) it was 0.305. The relative viability with KIN001-266 + Pemetrexed (first compound 0.8 µM) was found to be 0.297; with KIN001-266 + Pemetrexed (first compound 2.53 µM) it was 0.285; with KIN001-266 + Pemetrexed (first compound 8 µM), 0.29; with KIN001-266 + Phenformin (first compound 0.08 µM), 0.416; with KIN001-266 + Phenformin (first compound 0.253 µM) it was 0.402; with KIN001-266 + Phenformin (first compound 0.8 µM), 0.431. The values for the relative viability in the assay with KIN001-266 + Phenformin (first compound 2.53 µM) and with KIN001-266 + Phenformin (first compound 8 µM) were 0.422 and 0.36, respectively.
Regarding NCI-H1437, the relative viability in the assay with KIN001-266 + Trametinib (first compound 0.08 µM) amounted to 0.581; with KIN001-266 + Trametinib (first compound 0.253 µM), 0.577; with KIN001-266 + Trametinib (first compound 0.8 µM) it was 0.539; with KIN001-266 + Trametinib (first compound 2.53 µM) it was 0.561; with KIN001-266 + Trametinib (first compound 8 µM), 0.383; with KIN001-266 + Navitoclax (first compound 0.08 µM), 1.09. In addition, the relative viability in the assay with KIN001-266 + Navitoclax (first compound 0.253 µM) stood at 1.11; with KIN001-266 + Navitoclax (first compound 0.8 µM) it was 1.08; with KIN001-266 + Navitoclax (first compound 2.53 µM) it was 1.12; in the assay with KIN001-266 + Navitoclax (first compound 8 µM), 0.911; with KIN001-266 + Pemetrexed (first compound 0.08 µM) it was 0.32; in the assay with KIN001-266 + Pemetrexed (first compound 0.253 µM) it was 0.329. Moreover, the relative viability with KIN001-266 + Pemetrexed (first compound 0.8 µM) worked out at 0.329; in the assay with KIN001-266 + Pemetrexed (first compound 2.53 µM), 0.3; in the assay with KIN001-266 + Pemetrexed (first compound 8 µM), 0.241; in the assay with KIN001-266 + Phenformin (first compound 0.08 µM) it was 0.346; with KIN001-266 + Phenformin (first compound 0.253 µM), 0.272; in the assay with KIN001-266 + Phenformin (first compound 0.8 µM), 0.286. For the same cell line, the relative viability with KIN001-266 + Phenformin (first compound 2.53 µM) was determined as 0.291; in the assay with KIN001-266 + Phenformin (first compound 8 µM), 0.251.
NCI-H2009: the relative viability came to 0.296 with KIN001-266 + Trametinib (first compound 0.08 µM); 0.313 with KIN001-266 + Trametinib (first compound 0.253 µM); 0.273 in the assay with KIN001-266 + Trametinib (first compound 0.8 µM); 0.23 in the assay with KIN001-266 + Trametinib (first compound 2.53 µM); 0.253 with KIN001-266 + Trametinib (first compound 8 µM); 1.14 with KIN001-266 + Navitoclax (first compound 0.08 µM). Also, the relative viability in the assay with KIN001-266 + Navitoclax (first compound 0.253 µM) is 1.13; with KIN001-266 + Navitoclax (first compound 0.8 µM), 1.16; in the assay with KIN001-266 + Navitoclax (first compound 2.53 µM) it was 1.07; in the assay with KIN001-266 + Navitoclax (first compound 8 µM), 1.1; with KIN001-266 + Pemetrexed (first compound 0.08 µM), 1.03; with KIN001-266 + Pemetrexed (first compound 0.253 µM) it was 1.04. For the same cell line, the relative viability in the assay with KIN001-266 + Pemetrexed (first compound 0.8 µM) was 1.01; with KIN001-266 + Pemetrexed (first compound 2.53 µM), 0.996; with KIN001-266 + Pemetrexed (first compound 8 µM), 0.903; in the assay with KIN001-266 + Phenformin (first compound 0.08 µM), 0.455; with KIN001-266 + Phenformin (first compound 0.253 µM), 0.432; with KIN001-266 + Phenformin (first compound 0.8 µM) it was 0.441. In addition, the relative viability in the assay with KIN001-266 + Phenformin (first compound 2.53 µM) is 0.319; with KIN001-266 + Phenformin (first compound 8 µM) it was 0.262.
In the case of NCI-H1651, the relative viability came to 0.847 with KIN001-266 + Trametinib (first compound 0.08 µM); 0.833 with KIN001-266 + Trametinib (first compound 0.253 µM); 0.772 with KIN001-266 + Trametinib (first compound 0.8 µM); 0.771 with KIN001-266 + Trametinib (first compound 2.53 µM); 0.854 with KIN001-266 + Trametinib (first compound 8 µM); 0.954 with KIN001-266 + Navitoclax (first compound 0.08 µM). Moreover, the relative viability is 1.04 in the assay with KIN001-266 + Navitoclax (first compound 0.253 µM); 1.1 with KIN001-266 + Navitoclax (first compound 0.8 µM); 0.949 with KIN001-266 + Navitoclax (first compound 2.53 µM); 1.05 with KIN001-266 + Navitoclax (first compound 8 µM); 0.6 with KIN001-266 + Pemetrexed (first compound 0.08 µM); 0.535 in the assay with KIN001-266 + Pemetrexed (first compound 0.253 µM). Further, the relative viability stood at 0.531 with KIN001-266 + Pemetrexed (first compound 0.8 µM); 0.514 with KIN001-266 + Pemetrexed (first compound 2.53 µM); 0.58 with KIN001-266 + Pemetrexed (first compound 8 µM); 0.355 in the assay with KIN001-266 + Phenformin (first compound 0.08 µM); 0.383 with KIN001-266 + Phenformin (first compound 0.253 µM); 0.316 in the assay with KIN001-266 + Phenformin (first compound 0.8 µM). For the same cell line, the relative viability in the assay with KIN001-266 + Phenformin (first compound 2.53 µM) is 0.508; in the assay with KIN001-266 + Phenformin (first compound 8 µM), 0.325.
Take NCI-H1666: the relative viability in the assay with KIN001-266 + Trametinib (first compound 0.08 µM) amounted to 0.909; with KIN001-266 + Trametinib (first compound 0.253 µM), 0.897; with KIN001-266 + Trametinib (first compound 0.8 µM), 0.713; with KIN001-266 + Trametinib (first compound 2.53 µM), 0.855; with KIN001-266 + Trametinib (first compound 8 µM), 0.761; with KIN001-266 + Navitoclax (first compound 0.08 µM), 1.06. The relative viability with KIN001-266 + Navitoclax (first compound 0.253 µM) turned out to be 0.983; in the assay with KIN001-266 + Navitoclax (first compound 0.8 µM), 0.852; with KIN001-266 + Navitoclax (first compound 2.53 µM) it was 0.91; in the assay with KIN001-266 + Navitoclax (first compound 8 µM) it was 0.847; with KIN001-266 + Pemetrexed (first compound 0.08 µM) it was 0.861; with KIN001-266 + Pemetrexed (first compound 0.253 µM) it was 0.857. Further, the relative viability was 0.881 with KIN001-266 + Pemetrexed (first compound 0.8 µM); 0.773 with KIN001-266 + Pemetrexed (first compound 2.53 µM); 0.856 in the assay with KIN001-266 + Pemetrexed (first compound 8 µM); 0.547 with KIN001-266 + Phenformin (first compound 0.08 µM); 0.627 with KIN001-266 + Phenformin (first compound 0.253 µM); 0.573 with KIN001-266 + Phenformin (first compound 0.8 µM). The relative viability with KIN001-266 + Phenformin (first compound 2.53 µM) was 0.581; with KIN001-266 + Phenformin (first compound 8 µM), 0.574.
As for NCI-H1734, the relative viability with KIN001-266 + Trametinib (first compound 0.08 µM) is 0.671; with KIN001-266 + Trametinib (first compound 0.253 µM), 0.715; with KIN001-266 + Trametinib (first compound 0.8 µM), 0.606; in the assay with KIN001-266 + Trametinib (first compound 2.53 µM), 0.672; with KIN001-266 + Trametinib (first compound 8 µM) it was 0.608; with KIN001-266 + Navitoclax (first compound 0.08 µM), 0.789. Besides, the relative viability was found to be 0.839 with KIN001-266 + Navitoclax (first compound 0.253 µM); 0.612 with KIN001-266 + Navitoclax (first compound 0.8 µM); 0.808 with KIN001-266 + Navitoclax (first compound 2.53 µM); 0.61 in the assay with KIN001-266 + Navitoclax (first compound 8 µM); 0.425 with KIN001-266 + Pemetrexed (first compound 0.08 µM); 0.426 with KIN001-266 + Pemetrexed (first compound 0.253 µM). Moreover, the relative viability with KIN001-266 + Pemetrexed (first compound 0.8 µM) amounted to 0.435; with KIN001-266 + Pemetrexed (first compound 2.53 µM), 0.388; with KIN001-266 + Pemetrexed (first compound 8 µM), 0.417; with KIN001-266 + Phenformin (first compound 0.08 µM) it was 0.416; with KIN001-266 + Phenformin (first compound 0.253 µM), 0.387; with KIN001-266 + Phenformin (first compound 0.8 µM), 0.405. Moreover, the relative viability with KIN001-266 + Phenformin (first compound 2.53 µM) is 0.357; with KIN001-266 + Phenformin (first compound 8 µM), 0.321.
